Reference: patent US12318381B2, “Treatment for non-alcoholic fatty liver disease” (1GLOBE BIOMEDICAL CO., LTD., priority 2018, dated 2025)
“Also recorded” adds a separate entry of the source.

Experiments:
HFD-fed mice [1] = experiment: HFD-induced NAFLD mouse model: hepatic triglyceride biochemical assay; type: in vivo; conditions: HFD-fed mice liver (FIG. 6A)
Source text: (§1) Five-week-old male, C57Bl/6J mice (12-18 per group, Jackson Laboratory, Bar Harbor, Me.) were fed ad libitum with a modified high fat or control diet (Bioserv, Frenchtown, N.J.) for 15 weeks. […] We had verified the efficacy of this diet to induce obesity and NAFLD in various pilot studies. At the end of the 15-week long feeding regimen, this diet caused substantial ALT elevation—indicative of liver injury—in these mice.
(§2) After 15 weeks on the modified HFD, the mice were put on a Compound 13-3 (or control vehicle) dosing regimen, in which the introductory 5 mg/kg (p.o., t.i.w. for the first 3 weeks) dose was followed by the administration of 10 mg/kg (p.o., t.i.w. for additional 5 weeks) therapeutic dose. During the course of the drug treatment, the animals were monitored daily for changes in body weight, food/water intake, and adverse effects.
(§3) This biochemical change is very important, as ectopic fat accumulation has been linked to lipotoxicity and hepatocellular injury. The extent of liver injury has been characterized by measuring serum levels of two liver enzymes ALT (FIG. 6B) and AST (FIG. 6C) (UMASS Mouse Phenotyping Center Analytical Core, Worcester, Mass.) at the time of euthanasia.

leptin = experiment: Serum leptin ELISA in HFD-fed mice; type: in vivo, mouse; conditions: ELISA (FIG. 7E)
Source text: as §1, §2
A suppressive effect of exogenous FGF21 on circulating leptin levels has been previously observed in non-human primates. Accordingly, we also measured serum leptin levels using a commercially available ELISA kit.

HFD-fed mice [2] = experiment: HFD-induced NAFLD mouse model: serum ALT and AST levels; type: in vivo
Source text: as §1, §2, §3

human HepG2 liver cells = experiment: Intracellular triglyceride content in palmitoleic acid-treated HepG2 cells (biochemical kit); type: cell-based; conditions: HepG2, 1.6 mM palmitoleic acid in EMEM, 48 hours, 0.1 μM compound vs DMSO (FIG. 1A)
Description: A series of in vitro experiments were first carried out with various human hepatocyte cultures. For example, human HepG2 liver cells were incubated with 1.6 mM palmitoleic acid in EMEM medium for 48 hours in the presence of 0.1 μM Compound 13-3 or control vehicle, DMSO. After 48 hours, cells were collected and the intracellular triglyceride content was measured by a biochemical kit (Biovision, Mountain View, Calif.) as described in Derdak et al. J Hepatol. 2013; 58(4):785-91.

CD36 = experiment: Hepatic gene expression in HFD-fed mice; type: in vivo, mouse; conditions: HFD-fed mice liver (FIG. 8D)
Source text: as §1, §2
(§4) FGF21 has also been linked to the suppression of adipogenesis by suppressing hepatic PPAR-γ, FABP4 and CD36 (Xu J, et al. Diabetes (2009) 58(1):250-259). In view of this, we next assessed the expression of these mediators of adipogenesis in the livers of Compound 13-3-treated, HFD-fed mice.

PPAR-γ [3] = experiment: Hepatic gene expression in HFD-fed mice; type: in vivo, mouse; conditions: HFD-fed mice (FIG. 8A)
Source text: as §1, §2, §4

FABP4 = experiment: Hepatic gene expression in HFD-fed mice; type: in vivo, mouse; conditions: HFD-fed mice liver (FIG. 8C)
Source text: as §1, §2, §4

FGF21 [4] = experiment: Hepatic gene expression by quantitative real-time PCR in HFD-fed mice; type: in vivo, mouse; conditions: HFD-fed mice (FIG. 7C)
Source text: as §1, §2
(§5) To study the effect of Compound 13-3 on the mediators of fatty acid metabolism, we employed quantitative real-time PCR using commercially available probes to assess mediators of fatty acid metabolism in HFD-fed mice treated with Compound 13-3. As shown in FIGS. 7A-7E, gene expression of some key mediators of fatty acid oxidation such as CPT1a (FIG. 7A), an enzyme that catalyzes the rate-limiting step of fatty acid oxidation in the mitochondrion, of peroxisomal ACOX1 (FIG. 7B) and of FGF21 (FIG. 7C), a recently described hepatokine with pronounced anti-NAFLD and hepatoprotective efficacy (see, Maratos-Flier E Exp Cell Res (2017) 360(1): 2-5; Sonoda J, et al. Horm Mol Biol Clin Investig (2017) 30(2); Xu J, et al. Diabetes (2009) 58(1):250-259; Li H, et al. Diabetes (2012) 61(4): 797-806; Desai B N, et al. Mot Metab (2017) 6(11):1395-1406), were increased by Compound 13-3 treatment in HFD-fed mice. Many of the beneficial metabolic effects are linked to FGF21, and FGF21 itself may further enhance fatty acid oxidation (Xu J, et al. Diabetes (2009) 58(1):250-259; Li H, et al. Diabetes (2012) 61(4):797-806). We, therefore, also measured serum levels of FGF21 using a commercially available ELISA kit.

CPT1a = experiment: as above; type: in vivo, mouse; conditions: HFD-fed mice (FIG. 7A)
Source text: as §1, §2, §5

ACOX1 = experiment: as above; type: in vivo, mouse; conditions: HFD-fed mice (FIG. 7B)
Source text: as §1, §2, §5

FGF21 [5] = experiment: Serum FGF21 ELISA in HFD-fed mice; type: in vivo, mouse; conditions: ELISA (FIG. 7D)
Source text: as §1, §2
To study the effect of Compound 13-3 on the mediators of fatty acid metabolism, we employed quantitative real-time PCR using commercially available probes to assess mediators of fatty acid metabolism in HFD-fed mice treated with Compound 13-3. […] We, therefore, also measured serum levels of FGF21 using a commercially available ELISA kit.

HFD-fed mice [6] = experiment: High-fat diet (HFD)-induced obesity/NAFLD mouse model: body weight, food/water intake, liver size and weight; type: in vivo
Source text: (§6) In order to assess the in vivo efficacy of Compound 13-3 in improving obesity, and ameliorating NAFLD/NASH, a previously used modified high-fat diet (HFD) was employed to induce obesity and severe fatty liver disease in mice (Derdak et al. Journal of Hepatology 2013; 58(4):785-91).
as §1, §2

collagen type I, alpha 1 = experiment: Hepatic gene expression by quantitative real-time PCR in HFD-fed mice; type: in vivo, mouse; conditions: HFD-fed mice liver, quantitative real-time PCR (FIG. 5D)
Source text: as §1, §2
Therefore, pharmaceutical compositions based on Compound 13-3 and other compounds of the invention will likely provide a viable treatment of NAFLD and especially NASH.

PPAR-γ [7] = experiment: Hepatic protein expression by Western-blotting and densitometry in HFD-fed mice; type: in vivo, mouse; conditions: Western-blotting and densitometry (FIG. 8B)
Source text: as §1, §2, §4

HFD-fed mice [8] = experiment: HFD-induced NAFLD mouse model: liver histology (H&E, Masson's trichrome, PAS) and NAFLD Activity Score; type: in vivo
Source text: as §6, §1, §2
The pronounced efficacy of Compound 13-3 in improving NAFLD was further supported by microscopical analysis of the harvested liver samples (FIG. 4).
Microscopic evaluation of hematoxylin-eosin (H&E) stained liver slides was performed by an expert pathologist to determine the effect of the drug treatment on the NAFLD Activity Score (NAS), as a primary read-out for the anti-NAFLD efficacy of Compound 13-3. The composite NAS score is frequently used to describe the severity of the characteristic pathological changes seen in NAFLD/NASH (Kleiner D E et al. Hepatology. 2005; 41(6):1313-21), including steatosis, lobular inflammation (FIG. 5A), and hepatocellular ballooning (FIG. 5B).

CCN(CC)CCNC(=O)c1c(C)[nH]c(/C=C2\C(=O)Nc3ccc(-c4csc(-c5ccccc5)n4)cc32)c1C [Compound 13-3]
hepatic triglyceride content (HFD-fed mice [1]): prevented the HFD-induced steatosis
serum leptin level (HFD-induced increase) (leptin): significantly decreased
serum ALT (HFD-fed mice [2]; at euthanasia (FIG. 6B)): suppresses ALT elevation
serum AST (HFD-fed mice [2]; at euthanasia (FIG. 6C)): not affected
serum AST:ALT ratio (HFD-fed mice [2]; vs vehicle (FIG. 6D)): largely prevent the drastic decrease
palmitoleic acid-induced increase of intracellular triglyceride content (human HepG2 liver cells): markedly suppressed
CD36 gene expression (CD36): decreased
PPAR-γ gene expression in the liver (PPAR-γ [3]): suppressed
FABP4 gene expression (FABP4): decreased
FGF21 gene expression (FGF21 [4]): pronounced elevation
CPT1a gene expression (CPT1a): increased
ACOX1 gene expression (ACOX1): increased
serum FGF21 level (FGF21 [5]): increased
change in body weight during treatment (HFD-fed mice [6]; HFD-fed C57Bl/6J mice, 5 mg/kg p.o. t.i.w. 3 weeks then 10 mg/kg p.o. t.i.w. 5 weeks (FIG. 2A)): not only prevented additional weight gain in the mice on HFD, but also triggered a gradual weight loss
food intake (HFD-fed mice [6]; HFD-fed mice, 5 mg/kg then 10 mg/kg p.o. t.i.w. (FIG. 2C)): not linked to decreased food intake
water intake (HFD-fed mice [6]; HFD-fed mice, 5 mg/kg then 10 mg/kg p.o. t.i.w. (FIG. 2D)): not linked to decreased food intake or water intake
size of the liver (macroscopic overview at euthanasia) (HFD-fed mice [6]; HFD-fed mice, 5 mg/kg then 10 mg/kg p.o. t.i.w., vs vehicle (FIG. 2E, 3A)): markedly decreased the size of the liver; also recorded: essentially comparable to the lean animals
macroscopic appearance of the liver (HFD-fed mice [6]; HFD-fed mice, vs vehicle (pale yellow enlarged liver) (FIG. 2E)): healthier, darker brown appearance
fatty metamorphosis / ectopic fat accumulation in the liver (HFD-fed mice [6]; HFD-fed mice, vs vehicle-treated littermates (FIG. 3A-3C)): markedly decreased or prevented ectopic fat accumulation
liver weight (HFD-fed mice [6]; HFD-fed mice, vs vehicle-treated littermates, at euthanasia (FIG. 3A, 3B)): profoundly decrease liver weight
hepatic production (gene expression) of collagen type I, alpha 1 (collagen type I, alpha 1): marked decrease
PPAR-γ protein expression in the liver (PPAR-γ [7]): suppressed
HFD-induced steatosis and lobular inflammation (NAS components) (HFD-fed mice [8]; HFD-fed mice (FIG. 5A)): suppressed
HFD-induced hepatocellular ballooning (NAS component) (HFD-fed mice [8]; HFD-fed mice (FIG. 5B)): eliminated
hepatic glycogen depletion (Periodic Acid Schiff staining) (HFD-fed mice [8]; HFD-fed mice, vehicle group depleted in zones 2 & 3 (FIG. 4 bottom row)): evidence for hepatic depletion of glycogen was not present
fibrosis (Masson's trichrome staining) (HFD-fed mice [8]; HFD-fed mice, vehicle group showed stage 1 fibrosis (FIG. 4 middle row)): did not exhibit any signs of fibrosis
H&E histology: disorganized liver architecture, micro- and macrovesicular steatosis, hepatocyte ballooning and inflammation (HFD-fed mice [8]; HFD-fed mice, vs vehicle (FIG. 4 top row)): markedly suppressed
NAFLD Activity Score (NAS) (HFD-fed mice [8]; HFD-fed mice, vs vehicle-treated littermates (FIG. 5C)): substantially lower
